The target in the experiment is Transient receptor potential cation channel subfamily A member 1 (Homo sapiens, UniProt O75762). Briefly: Fluorescence Assay: IC50s (effective concentration) of compounds on the human TRPA1 channel were determined using a Hamamatsu FDSS fluorescence plate reader. CHO cells expressing human TRPA1 were plated into 384-well plates, incubated overnight at 37° C., and loaded with BD calcium indicator dye for 1 hr at 37° C. followed by 15 minutes at room temperature. The assay buffer was Hank's Balanced Salt Solution (HBSS) containing 20 mM HEPES (pH readjusted to 7.4) along with 0.02% BSA.Following dye load and plate cool down, compounds were added to the cells using the FDSS while monitoring fluorescence to determine whether any of the test compounds have TRPA1 agonist activity. Plates were then incubated with compound for 20 minutes at room temperature prior to adding agonist. Following this incubation, […] cinnamaldehyde was added to all wells of the plate and block of this cinnamaldehyde induced calcium influx was measured.
Sequence of Transient receptor potential cation channel subfamily A member 1 (O75762 whole entry): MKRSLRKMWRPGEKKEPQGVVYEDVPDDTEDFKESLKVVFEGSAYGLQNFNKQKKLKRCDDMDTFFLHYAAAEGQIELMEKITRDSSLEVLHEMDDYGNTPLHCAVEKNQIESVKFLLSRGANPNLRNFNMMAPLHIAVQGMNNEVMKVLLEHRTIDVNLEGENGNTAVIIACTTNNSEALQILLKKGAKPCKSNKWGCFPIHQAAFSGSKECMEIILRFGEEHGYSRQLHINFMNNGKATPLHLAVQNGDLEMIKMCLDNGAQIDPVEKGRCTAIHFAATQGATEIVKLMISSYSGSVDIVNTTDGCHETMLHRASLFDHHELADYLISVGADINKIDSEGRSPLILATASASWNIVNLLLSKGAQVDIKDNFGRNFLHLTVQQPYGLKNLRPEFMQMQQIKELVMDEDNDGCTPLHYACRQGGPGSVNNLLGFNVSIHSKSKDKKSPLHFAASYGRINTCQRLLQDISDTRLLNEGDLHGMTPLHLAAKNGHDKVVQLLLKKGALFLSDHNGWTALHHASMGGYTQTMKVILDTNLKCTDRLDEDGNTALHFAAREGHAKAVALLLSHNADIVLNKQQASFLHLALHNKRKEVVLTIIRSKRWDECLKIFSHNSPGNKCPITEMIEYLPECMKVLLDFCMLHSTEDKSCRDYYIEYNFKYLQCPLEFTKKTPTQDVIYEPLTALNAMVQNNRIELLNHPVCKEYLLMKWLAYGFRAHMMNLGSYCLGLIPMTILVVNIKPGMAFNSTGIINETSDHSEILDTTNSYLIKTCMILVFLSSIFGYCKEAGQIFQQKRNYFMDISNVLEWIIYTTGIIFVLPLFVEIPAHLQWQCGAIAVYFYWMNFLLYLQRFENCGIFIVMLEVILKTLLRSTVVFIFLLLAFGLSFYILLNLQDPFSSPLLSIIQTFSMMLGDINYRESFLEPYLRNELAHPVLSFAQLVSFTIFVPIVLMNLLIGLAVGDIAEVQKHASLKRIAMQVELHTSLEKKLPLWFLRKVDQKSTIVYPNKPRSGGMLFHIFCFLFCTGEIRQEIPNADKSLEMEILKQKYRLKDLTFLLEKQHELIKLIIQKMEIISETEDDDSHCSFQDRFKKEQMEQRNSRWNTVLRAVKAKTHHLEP

As for `CC(C)N(CC(=O)NCc1cc(C2=CCC(C(F)(F)F)CC2)ncn1)S(=O)(=O)c1ccc(F)cc1` (stereo unspecified), the IC50 (commonly the concentration that inhibits the measured activity by half) was 13 nM.

The values are drawn from ChEMBL document CHEMBL5725783, “Substituted sulfonamide compounds” (2017).
